Measured values: patent US9918964B2, “Reducing platelet activation, aggregation and platelet-stimulated thrombosis or blood coagulation by reducing mitochondrial respiration” (priority 2010, dated 2018)
Values after ≈ are worked out from the molar mass of the structure shown. Values joined by “and” are separate entries in the source; they are usually repeats but may differ in a detail not shown here. Equal entries are not always repeated. Where two headings read alike, the source gives them in different places.

Experiments:
[1] = tested on: mitochondria isolated from liver of tilapia (Sarotheridon mossambica); type: biochemical
[2] = tested on: mitochondria isolated from liver of tilapia (Sarotheridon mossambica); type: biochemical; remark: listed apart in the source
[3] = tested on: platelets in whole blood; test: Platelet function testing with the Hemostasis Mechanism Analyzer (HMA): clumping, sticking, clotting in whole blood; type: cell-based, human; settings: for activity at 700 µg/mL / activity at 1300 µg/mL / activity at 2700 µg/mL / activity at 5300 µg/mL / activity at 10700 µg/mL / activity at 670 µg/mL / activity at 3300 µg/mL / activity at 6700 µg/mL / activity at 11700 µg/mL / activity at 23300 µg/mL / activity at 5000 µg/mL: Homo sapiens, Platelet; for activity at 700 µg/mL: Dosage (mg/ml) 0.7; for activity at 1300 µg/mL: Dosage (mg/ml) 1.3; for activity at 2700 µg/mL: Dosage (mg/ml) 2.7; for activity at 5300 µg/mL: Dosage (mg/ml) 5.3; for activity at 10700 µg/mL: Dosage (mg/ml) 10.7; for activity at 11700 µg/mL: Dosage (mg/ml) 11.7; for activity at 23300 µg/mL: Dosage (mg/ml) 23.3; for activity at 5000 µg/mL: Dosage (mg/ml) 5
[4] = tested on: mitochondria; test: Hydrogen peroxide levels on mitochondrial inhibition (unpublished results)
From the text: Various experimental models of Parkinson's disease and other maladies have implicated mitochondrial dysfunction and excessive Reactive Oxygen Species (ROS) as possible contributors. Fortunately it is routine in the art to screen mitochondrial inhibitors or indeed any platelet inhibitor for hydrogen peroxide production in vitro, to select active agents that are suitable for long term administration as long as the production of hydrogen peroxide is not excessive.

[5] = in vitro whole blood assay, clumping, sticking, clotting
[6] = 0 dosage = 100, read-out: % clot time increase
[7] = 0 dosage = 100, read-out: % clump time increase
[8] = 0 dosage = 100, read-out: % stick time increase
[9] = read-out: % clump time increase
[10] = read-out: % stick time increase
[11] = Dosage (mg/ml) 3.3, 0 dosage = 100, read-out: % clot time increase
[12] = Dosage (mg/ml) 3.3, 0 dosage = 100, read-out: % clump time increase
[13] = Dosage (mg/ml) 3.3, 0 dosage = 100, read-out: % stick time increase
[14] = Dosage (mg/ml) 6.7, 0 dosage = 100, read-out: % clot time increase
[15] = Dosage (mg/ml) 6.7, 0 dosage = 100, read-out: % clump time increase
[16] = Dosage (mg/ml) 6.7, 0 dosage = 100, read-out: % stick time increase

Nc1nnn[nH]1 [Compound 34, 1H-tetrazol-5-amine]
Reversible? [1]: reversible and Yes
IC50 (mg/ml) mitochondria inhibition [2]: 8.5 mg/mL (≈ 99.9 mM)

Brc1nn[nH]c1Br [Compound 48, 4,5-dibromo-1H-triazole]
Reversible? [1]: reversible and Yes
activity in the platelet assays (active agent or inactive) [3, 5]: met the criteria for active agents
IC50 (mg/ml) mitochondria inhibition [2]: 30 mg/mL (≈ 132 mM)

Cc1ncsc1CCOC(=O)C[P+](c1ccccc1)(c1ccccc1)c1ccccc1.[Br-] [Compound 49, [2-[2-(4-methylthiazol-5-yl)ethoxy]-2-oxo-ethyl]-triphenyl-phosphonium bromide]
Reversible? [1]: irreversible and No
activity in the platelet assays (active agent or inactive) [3]: significantly reduced platelet activity or aggregation
IC50 (mg/ml) mitochondria inhibition [2]: 8.8 mg/mL

Cc1cscn1 [Compound 75, 4-methylthiazole]
activity at 700 µg/mL [3, 6]: 103%
activity at 700 µg/mL [3, 7]: 115%
activity at 700 µg/mL [3, 8]: 106%
activity at 1300 µg/mL [3, 6]: 106%
activity at 1300 µg/mL [3, 7]: 109%
activity at 1300 µg/mL [3, 8]: 102%
activity at 2700 µg/mL [3, 6]: 108%
activity at 2700 µg/mL [3, 7]: 126%
activity at 2700 µg/mL [3, 8]: 123%
activity at 5300 µg/mL [3, 6]: 114%
activity at 5300 µg/mL [3, 7]: 136%
activity at 5300 µg/mL [3, 8]: 132%
activity at 10700 µg/mL [3, 6]: 122%
activity at 10700 µg/mL [3, 7]: 164%
activity at 10700 µg/mL [3, 8]: 155%
IC50 (mg/ml) mitochondria inhibition [2]: 40.6 mg/mL (≈ 409 mM)

Cc1nnn[nH]1 [Compound 76, 5-methyl-1H-tetrazole]
activity at 670 µg/mL ([3]; read-out: % clot time increase): 91%
activity at 3300 µg/mL ([3]; read-out: % clot time increase): 120%
activity at 6700 µg/mL ([3]; read-out: % clot time increase): 301%
activity at 670 µg/mL [3, 9]: 129%
activity at 3300 µg/mL [3, 9]: 209%
activity at 670 µg/mL [3, 10]: 125%
activity at 3300 µg/mL [3, 10]: 217%
activity at 6700 µg/mL [3, 10]: 983%
IC50 (mg/ml) mitochondria inhibition [2]: 12.6 mg/mL (≈ 150 mM)

OCc1c[nH]c2ccccc12 [Compound 77, 1H-indol-3-ylmethanol]
activity at 700 µg/mL [3, 6]: 102%
activity at 700 µg/mL [3, 7]: 95%
activity at 700 µg/mL [3, 8]: 92%
activity at 3300 µg/mL [3, 11]: 104%
activity at 3300 µg/mL [3, 12]: 81%
activity at 3300 µg/mL [3, 13]: 86%
activity at 6700 µg/mL [3, 14]: 105%
activity at 6700 µg/mL [3, 15]: 109%
activity at 6700 µg/mL [3, 16]: 97%
activity at 11700 µg/mL [3, 6]: 108%
activity at 11700 µg/mL [3, 7]: 116%
activity at 11700 µg/mL [3, 8]: 114%
activity at 23300 µg/mL [3, 6]: 126%
activity at 23300 µg/mL [3, 7]: 140%
activity at 23300 µg/mL [3, 8]: 100%
activity in the platelet assays (active agent or inactive) [3, 5]: met the criteria for active agents
IC50 (mg/ml) mitochondria inhibition [2]: 82.8 mg/mL (≈ 563 mM)

CCOC(=O)Cc1nnn[nH]1 [Compound 80, ethyl 2-(1H-tetrazol-5-yl)acetate]
activity at 3300 µg/mL [3, 11]: 110%
activity at 3300 µg/mL [3, 12]: 107%
activity at 3300 µg/mL [3, 13]: 104%
activity at 5000 µg/mL [3, 6]: 121%
activity at 5000 µg/mL [3, 7]: 143%
activity at 5000 µg/mL [3, 8]: 141%
activity at 6700 µg/mL [3, 14]: 133%
activity at 6700 µg/mL [3, 15]: 207%
activity at 6700 µg/mL [3, 16]: 209%
IC50 (mg/ml) mitochondria inhibition [2]: 100 mg/mL (≈ 640 mM)

c1cncnc1 [Compound 81, pyrimidine]
activity in the platelet assays (active agent or inactive) [3, 5]: inactive
IC50 (mg/ml) mitochondria inhibition [2]: 51.5 mg/mL (≈ 643 mM)

O=C(O)Cc1nnn[nH]1 [Compound 82, 2-(1H-tetrazol-5-yl)acetic acid]
activity at 3300 µg/mL [3, 11]: 137%
activity at 3300 µg/mL [3, 12]: 240%
activity at 3300 µg/mL [3, 13]: 222%
activity at 5000 µg/mL [3, 6]: 217%
activity at 5000 µg/mL [3, 7]: 755%
activity at 5000 µg/mL [3, 8]: 601%
IC50 (mg/ml) mitochondria inhibition [2]: 11.8 mg/mL (≈ 92.1 mM)

CSc1nnn[nH]1 [Compound 83, 5-methylsulfanyl-1H-tetrazole]
Reversible? [1]: reversible and Yes
activity at 3300 µg/mL [3, 11]: 127%
activity at 3300 µg/mL [3, 12]: 167%
activity at 3300 µg/mL [3, 13]: 157%
activity at 5000 µg/mL [3, 6]: 191%
activity at 5000 µg/mL [3, 7]: 584%
activity at 5000 µg/mL [3, 8]: 512%
activity at 6700 µg/mL [3, 14]: 297%
IC50 (mg/ml) mitochondria inhibition [2]: 14.5 mg/mL (≈ 125 mM)

Sc1ncc[nH]1 [Compound 84, 1H-imidazole-2-thiol]
activity at 6700 µg/mL [3, 14]: 99%
activity at 6700 µg/mL [3, 15]: 113%
activity at 6700 µg/mL [3, 16]: 105%
activity at 11700 µg/mL [3, 6]: 110%
activity at 11700 µg/mL [3, 7]: 121%
activity at 11700 µg/mL [3, 8]: 111%
activity at 23300 µg/mL [3, 6]: 128%
activity at 23300 µg/mL [3, 7]: 149%
activity at 23300 µg/mL [3, 8]: 142%
activity in the platelet assays (active agent or inactive) [3, 5]: met the criteria for active agents
IC50 (mg/ml) mitochondria inhibition [2]: 17.3 mg/mL (≈ 173 mM)

Cn1c(-c2ccccc2)c[nH]c1=S [Compound 91, 3-methyl-4-phenyl-1H-imidazole-2-thione]
activity in the platelet assays (active agent or inactive) [3, 5]: inactive
IC50 (mg/ml) mitochondria inhibition [2]: 5.4 mg/mL (≈ 28.4 mM)

Cc1ncsc1C [Compound 92, 4,5-dimethylthiazole]
activity at 700 µg/mL [3, 6]: 100%
activity at 700 µg/mL [3, 7]: 112%
activity at 700 µg/mL [3, 8]: 118%
activity at 3300 µg/mL [3, 11]: 101%
activity at 3300 µg/mL [3, 12]: 176%
activity at 3300 µg/mL [3, 13]: 171%
activity at 6700 µg/mL [3, 14]: 106%
activity at 6700 µg/mL [3, 15]: 195%
activity at 6700 µg/mL [3, 16]: 179%
activity at 11700 µg/mL [3, 6]: 126%
activity at 11700 µg/mL [3, 7]: 224%
activity at 11700 µg/mL [3, 8]: 211%
activity at 23300 µg/mL [3, 6]: 162%
activity at 23300 µg/mL [3, 7]: 717%
activity at 23300 µg/mL [3, 8]: 546%
IC50 (mg/ml) mitochondria inhibition [2]: 50.9 mg/mL (≈ 450 mM)

Cc1cncs1 [Compound 94, 5-methylthiazole]
Reversible? [1]: reversible and Yes
IC50 (mg/ml) mitochondria inhibition [2]: 23.5 mg/mL (≈ 237 mM)

Thiazole [Compound 47]
Reversible? [1]: reversible and Yes
activity in the platelet assays (active agent or inactive) [3]: inactive
IC50 (mg/ml) mitochondria inhibition [2]: 21.3 mg/mL

tetrazole [Compound 93]
Reversible? ([1]; reversible if respiration rate after removing the inhibitor returned to greater than 75% of its value in the absence of inhibitor): reversible and Yes
% clot time increase [3]: 150% and 128% and 114%
% clump time increase [3]: 211% and 194% and 116%
% stick time increase [3]: 193% and 173% and 116%
hydrogen peroxide levels [4]: elevated levels of hydrogen peroxide
IC50 (mg/ml) mitochondria inhibition [2]: 31.5 mg/mL
